Data on one molecule can be found in patent US9289411B2, “Anti-HCV agent” (NATIONAL UNIVERSITY CORPORATION OKAYAMA UNIVERSITY, priority 2011, dated 2016).

This series concerns OR6 cells. The series can be described thus: Cytotoxic effect, WST-1 cell proliferation assay in OR6 cells. The following applies: OR6 cells, 72 hours, WST-1. An excerpt: Assay systems using OR6 cells (HCV-O strain), 1B-4R cells (HCV-1B-4 strain), and AH1R cells (HCV-AH1R strain) as HuH-7 cell-derived full-length HCV-RNA-replicating cells, and ORL8 cells (HCV-O strain), ORL11 cells (HCV-O strain), 1B-4RL cells (HCV-1B-4 strain), and KAH5RL cells (HCV-KAH5 strain) as Li23 cell-derived full-length HCV-RNA-replicating cells were used for the quantitative analysis of anti-HCV activity and evaluation of a cytotoxic effect in the present invention. The three cell lines, i.e., the 1B-4R cells, the 1B-4RL cells, and the KAH5RL cells have been disclosed in WO 2010/026965 A1. The AH1R cells may be produced with reference to Mori K et al., BBRC, 371:104-109, 2008 and WO 2010/026965 A1. In addition, all the HCV strains belong to genotype 1b.
In the measurement of the renilla luciferase activity and the measurement by the WST-1 method, experiments were performed in three wells independent of each other, and their means and standard deviation were calculated.
After 24 hours, N-89 was added so as to achieve concentrations of 20 μM, a 2-fold dilution series from 20 μM (10, 5, 2.5, 1.3, 0.63, and 0.31 μM), and 0, or N-251 was added so as to achieve concentrations of 10 μM, a 2-fold dilution series from 10 μM (5, 2.5, 1.3, 0.63, 0.31, and 0.16 μM), and 0.
The cytotoxic effect of artemisinin was examined using OR6 and ORL8 cells and the CC50 values were calculated. […]
In general terms: Formazan colour is commonly taken as a measure of viable cells.

With `OCCCCCCC1COOC2(CCCCCCCCCCC2)OOC1` [N-251, 6-(1,2,6,7-tetraoxaspiro[7,11]nonadec-4-yl)], half-maximal cytotoxicity (CC50) was put at 3000 nM.
